Results taken from patent US7713986B2, “Compounds and methods for treatment of chemotherapy-induced anemia” (priority 2006, dated 2010).

What was measured:
[1] = tested on: female Harlan nude mice implanted with H460 tumor cells; test: H-460 tumor-bearing nude mice given chemotherapeutic agent with or without Compound A: premature morbidity and hematocrit
Experimental: To examine the effect of methods and compounds of the present invention on treatment of chemotherapy-induced anemia, the following study was performed. The human H-460 lung cancer cell line used was obtained from the National Cancer Institute. (Brower et al., (1986) Cancer Res 46:798-806.) Animals were maintained in a HEPA-filtered environment during the experimental period. Cages, food, and bedding were autoclaved. Animal diets were obtained from Harlan Teklad (Madison, Wis.). Hydrochloric acid, 0.15% (v/v), was added to the drinking water.
Compounds of the invention were pre-formulated in an aqueous vehicle consisting of 0.1% (w/w) Polysorbate 80 (JT Baker) and 0.5% (w/w) high viscosity carboxymethyl cellulose sodium (Spectrum) to achieve a final 10 ml/kg dosing (oral gavage).
A stock tumor was established by subcutaneously injecting a cell suspension into nude mice. The resulting tumor was maintained in nude mice subcutaneously as tumor stock prior to use. Tumor implantation was performed when the stock tumors were in log phase of growth. Before implantation, tumor tissue was harvested from stock mice and placed in RPMI-1640 medium. Necrotic tissues were dissected away and viable tissues were cut into 1-2 mm^2 pieces. In these experiments, 1×10^7H460 tumor cells were implanted subcutaneously to the flanks of female Harlan nude mice.
Treatment (administration of compounds of the present invention) was initiated when the inoculated tumors reached approximately 100 mm^3, and continued for four weeks.
These studies followed the guidelines of the Tumor Growth Delay (TGD) type, using a protocol that required individual animals to be humanely euthanized after reaching a set endpoint of tumor volume greater than or equal to 2 cc. At this endpoint, blood was also sampled and hematocrit (HCT) was determined.
These two chemotherapeutic are representative of two broad classes of conventional anti-tumor therapeutics: microtubule poisons (Paclitaxcel); and DNA-directed agents, including the sub-classification of DNA alkylating agents (Carboplatin). […]

[2] = Body weight of H-460 tumor-bearing nude mice given chemotherapeutic agent with or without Compound A; format: in vivo, female Harlan nude mice
Experimental: To examine the effects of compounds and methods of the present invention on weight loss associated with chemotherapeutic agents, the following study was performed. This experiment was carried out essentially as described above in Example 2. […] Cages, food, and bedding were autoclaved. Animal diets were obtained from Harlan Teklad (Madison, Wis.).
Body weights were monitored over time for individual animals. Changes in individual animal body weights over time are shown in FIGS. 3-8, and are presented as percent of initial body weight (treatment day 1), which was set at 100%.

[3] = tested on: animal model of chemotherapy-induced anemia; format: in vivo, Sprague Dawley male rats
Experimental: Fifteen Sprague Dawley male rats (280-300 g) were obtained from Charles River Laboratories. On day 0, rats were treated by intraperitoneal (i.p.) injection with a single dose of saline (control; n=3) at 8 ml/kg, or Cisplatin (CP; Bedford Laboratories, Bedford Ohio) at either 7 mg/kg (7 ml/kg; n=6) or 10 mg/kg (10 ml/kg; n=6). Blood samples (0.2 ml) were collected on days 5, 9, and 16 as follows. Animals were anesthetized with isoflurane and 0.2 ml of blood was collected from the tail vein into a MICROTAINER EDTA-2K tube (Becton-Dickinson). Blood samples were processed for hematocrit as described above to determine the degree of anemia produced in each animal.
Beginning on day 19 of the study, one half of each cisplatin-treated group (n=3×2) and all of the control group were treated by oral gavage once per day for 5 consecutive days with a 2 ml/kg volume of 0.5% CMC (Sigma-Aldrich). […] Blood samples (0.5 ml) were collected as described above immediately prior to treatment and 4 days after treatment initiation. Blood samples were analyzed for CBC and reticulocyte counts as described above. On day 9 after initiation of oral treatment, a blood sample (0.1 ml) was collected and processed for hematocrit as described above.

## N.N.O=C([O-])C1(C(=O)[O-])CCC1.[Pt+2] [Carboplatin]
[1]; Carboplatin alone (closed circles in FIG. 2)
  hematocrit over time: significant decrease
[1]; Cmpd A 60 mg/kg p.o., Carboplatin 120 mg/kg i.p. Q7d
  # animals morbid prematurely: 6/10
[1]; Cmpd A 60 mg/kg p.o., Carboplatin 120 mg/kg i.p. Q7d, endpoint tumor volume >= 2 cc
  # animals reaching study endpoint: 4/10
[2]; chemotherapeutic agent alone (FIG. 5, FIG. 7)
  body weight pattern compared to non-treated vehicle control animals: pattern of weight loss
[2]; number of animals of 10
  animals with more than a 10% weight gain at any time during the study: 3 of 10
[2]; number of animals of 10 per group
  animals that ended the study at a body weight below that at the start: 7 of 10

## O=C(O)CNC(=O)c1nc(Cl)c2ccccc2c1O [Compound A, N—((1-chloro-4-hydroxy-isoquinoline-3-carbonyl)-amino)-acetic acid]
[3]; 4 days after initiating treatment with Compound A, oral gavage once per day for 5 days (FIG. 1A)
  hematocrit in Cisplatin-treated animals: increased hematocrit
[3]; Cisplatin-treated animals, compared to those without Compound A (FIG. 1B)
  percent circulating reticulocytes: increased
[3]; Cisplatin-treated rats, day 9 post-treatment (FIG. 1A)
  hematocrit levels versus non-treated counterparts: significantly higher
[2]; mouse, in vivo
  body weight change at end of study: overall net weight gain
[2]; mouse, in vivo, 60 mg/kg
  body weights during the time course of the study: increased gradually

## CC(=O)O[C@H]1C(=O)[C@@]2(C)[C@H]([C@H](OC(=O)c3ccccc3)[C@]3(O)C[C@H](OC(=O)[C@H](O)[C@@H](NC(=O)c4ccccc4)c4ccccc4)C(C)=C1C3(C)C)[C@]1(OC(C)=O)CO[C@@H]1C[C@@H]2O [Paclitaxel]
[2]; mouse, in vivo
  animals that ended the study at a body weight below that at the start: 2 of 10
  body weight pattern compared to non-treated vehicle control animals: pattern of weight loss
